These results are taken from patent US20220409617A1, “Drug Formulations and Methods of Treatment for Metabolic Disorders” (The Regents of the University of California, priority 2019, published 2022).

Entries after “also recorded” stand apart in the source; their conditions may differ.

The test system of assay [1] is mouse embryonic fibroblasts (MEFs). The assay is classed as cell-based. To be noted: 3 h pre-treatment then palmitate 250 μM 3 h, 893 5 μM, myriocin 10 μM, fumonisin B1 30 μM, NAV-2729 12.5 μM, YM201636 800 nM, celastrol 500 nM.
Assay [2] has the same test system. Description: Ceramide-induced (C16:0 CER, C2-ceramide) mitochondrial fragmentation. The assay is classed as cell-based. The following applies: MEFs; C16:0 CER 100 μM or C2-ceramide 50 μM 3 h; 893 5 μM, mdivi-1 50 μM, M1 5 μM, leflunomide 50 μM, P110 1 μM. Here is the method: 3T3-L1 cells were maintained in DMEM with 10% FBS and 1% penicillin-streptomycin until induced to differentiate. 3T3-L1 pre-adipocytes were differentiated as described in (M. P. Valley, et al., Anal. Biochem. 505: 43-50, 2016, the disclosure of which is incorporated herein by reference) with slight modifications. Briefly, pre-adipocytes were grown to confluence. After 2 d, cells were induced with maintenance media containing 500 μM IBMX (15879, Sigma-Aldrich, St. Louis, Mo.), 1 μM dexamethasone (D4902, Sigma-Aldrich), 5 μg/mL bovine insulin (10516, Sigma-Aldrich), and 5 μM troglitazone (50-115-0786, ApexBio). Media was changed every 2-3 d for 7 d. On day 7 post-induction, media was changed to maintenance media+5 μg/mL bovine insulin. On day 9 post-induction, media was changed to maintenance media. Mature adipocytes were used 12-14 d post-induction for all experiments. LSL-KrasG12D mouse embryonic fibroblasts (MEFs) with and without Cre-mediated deletion of the STOP cassette were obtained from David Tuveson (Cold Spring Harbor Laboratory, Cold Spring Harbor N.Y., USA) in 2000. p53^flox/flox MEFs were derived in house (2015) from C57BL/6 mice using standard techniques and immortalized by transient expression of Cre recombinase and deletion of p53. MEFs were cultured and maintained in DMEM with 10% FBS and 1% penicillin-streptomycin. A549 cells were cultured in DMEM with 10% FBS, 1% penicillin-streptomycin and 1% sodium pyruvate. Stock solution of palmitic acid (ACROS Organics, cat # AC129702500) was prepared at 100 mM in ethanol. Palmitate (250 μM) was conjugated to 1% (w/v) fatty-acid free bovine serum albumin (Sigma, A8806) in DMEM at 37° C. for 20 min. For all immunofluorescence assays, 8,000 MEFs were seeded into 8-chamber slides (Cellvis, cat # C8-1.5H-N) 12-16 h before treatment. Cells were pre-treated with sphingolipid-like compound 893 (5 μM in water), myriocin (10 μM in methanol), fumonisin-B1 (30 μM in DMSO), or celastrol (500 nM in DMSO) for 3 h followed by a 3 h treatment with BSA-conjugated palmitate mixture or BSA alone. Where cells were treated with C2-ceramide (50 μM in DMSO) or C16:0 ceramide (100 μM in ethanol) for 3 h, cells were pre-treated with sphingolipid-like compound 893 for 1-3 h as indicated, mdivi-1 (50 μM in DMSO) for 1 h or 24 h, M1 (5 μM in DMSO) for 24 h, mdivi-1 and M1 together for 24 h, leflunomide (50 μM in methanol) for 1 h or 24 h, or with P110 (1 μM in water) for 1 h or 12 h. LSL or KRAS^G12D MEFs were treated with sphingolipid-like compound 893 (5 μM) for 6 h prior to fixation.
MEFs were washed twice with PBS and fixed with 4% paraformaldehyde for 10 min at RT. Cells were permeabilized with 0.3% Triton X-100 in blocking buffer containing 10% fetal bovine serum for 20 min at 37° C. followed by overnight incubation with mouse anti-citrate synthase (sc-390693, Santa Cruz Biotechnology; dilution, 1:200) or rabbit-anti-DRP1 at 1:100 (#8570, Cell Signaling Technology) at 4° C. Cells were then washed twice with PBS and incubated with AlexaFluor 488 goat anti-mouse (A28175, Invitrogen) or AlexaFluor 594 donkey anti-rabbit (A32754, Invitrogen) secondary antibodies at RT followed by 5 min incubation with 1 μg/ml DAPI and 2 washes in PBS. For NADH autofluorescence studies, mice were gavaged with vehicle or 120 mg/kg sphingolipid-like compound 893 at ZT8.5 (4-10.5 h before sacrifice between ZT12.5 and ZT18). Post sacrifice, livers were excised, washed 3× with PBS, placed in DMEM supplemented with 10% FBS and 1% penicillin-streptomycin, and immediately imaged. NADH/NADPH autofluorescence was detected with 740 nm excitation and 450±50 nm detectors using a Mai Tai two-photon laser. Fluorescence microscopy was performed on a Zeiss LSM 780 confocal using a 63× oil objective with a […] numerical aperture (NA) or using a Nikon TE2000-S inverted epifluorescence microscope with a 100× oil objective (1.3 NA) and a Photometrics CoolSNAP ES2 monochrome CCD camera. […]

Turning to NAV-2729, the “Protection from palmitate-induced mitochondrial fragmentation (aspect ratio, branch length, roundness)” value in assay [1] was “partial protection from palmitate-induced mitochondrial fragmentation”.
With `CC(=NNc1c(Cl)cc(Cl)cc1Cl)c1cc(Cl)ccc1O` [M1], in assay [2], the “Protection from ceramide-induced mitochondrial fragmentation” value is reported as “neither compound alone or in combination prevented ceramide- or KRAS-induced mitochondrial fragmentation”.
Still for that read-out and setting: for `COc1cc(-n2c(=S)[nH]c3ccccc3c2=O)c(Cl)cc1Cl` [mdivi-1] the value was “failed to prevent C16:0 ceramide-induced mitochondrial fragmentation; also recorded: neither compound alone or in combination prevented ceramide- or KRAS-induced mitochondrial fragmentation”.
